Results from patent publication US20230357447A1, “TUMOR ACTIVATED MULTISPECIFIC ANTIBODIES FOR TARGETING CD28 AND PD-L1 AND METHODS OF USE THEREOF” (Janux Therapeutics, Inc., priority 2022, published 2023).

Tested on: anti-CD28 scFv
Experiment: Phage binding ELISA (panning) of clonal phage on anti-CD28 scFv, with or without CD28 soluble protein
Details: Phage binding ELISA; for Backgroud signal: clonal phage supernatant, background wells; for CD28 scFv signal in presence of CD28: captured anti-CD28 scFv pre-incubated with CD28 soluble protein; for CD28 scFv signal: captured biotinylated anti-CD28 scFv, blocking buffer alone
Experimental: Clonal phage were harvested as crude supernatants and screened via standard enzyme linked immunosorbent assays (ELISAs). […] Prior to the addition of clonal phage, wells were incubated with blocking buffer and CD28 soluble protein or blocking buffer alone. Without washing or aspirating, clonal phage supernatants were then added to the wells and incubated for a short time. Wells were then washed followed by detection of bound phage using a horse radish peroxidase conjugated anti-M13 antibody. Clonal phage of interest were then sent for sequence analysis.

Phage-88 (MDWCPIHLWHYCFN) was tested, and the Backgroud signal was 0.078.
Phage-89 (MDWCPRALWNVCFN) was tested, and the Backgroud signal was 0.065.
For Phage-90 (MDWCPIDLWHLCFY), the Backgroud signal was 0.062.
For Phage-91 (MDWCPRDLWFLCYN), the “CD28 scFv signal in presence of CD28” value was 0.424, the “CD28 scFv signal” value was 2.587 and the Backgroud signal was 0.060.
With Phage-92 (MDWCPRHLWHECFF) the “CD28 scFv signal in presence of CD28” value was 0.373, the “CD28 scFv signal” value was 2.583 and the Backgroud signal was 0.364.
With Phage-93 (MDWCPRYLWTVCFS) the “CD28 scFv signal in presence of CD28” value was 0.372, the “CD28 scFv signal” value was 2.582 and the Backgroud signal was 0.115.
For Phage-94 (MDWCPRDLWSLCFY), the Backgroud signal was 0.065.
In the case of Phage-95 (MDWCPRFLWSECFN), the Backgroud signal is reported as 0.062.
With Phage-96 (MDWCPRTLWAYCFN) the “CD28 scFv signal in presence of CD28” value was 0.584, the “CD28 scFv signal” value was 2.571 and the Backgroud signal was 0.070.
Work on Phage-97 (MDWCPKDLWDYCFA) yielded a Backgroud signal of 0.078.
In the case of Phage-98 (MDWCPKYLWDVCFN), the “CD28 scFv signal in presence of CD28” value is reported as 0.422, the “CD28 scFv signal” value is reported as 2.566 and the Backgroud signal is reported as 0.096.
For Phage-99 (MDWCPRYLWNMCFH), the “CD28 scFv signal in presence of CD28” value was 0.404, the “CD28 scFv signal” value was 2.564 and the Backgroud signal was 0.114.
In the case of Phage-100 (MDWCPRYLWTECFN), the Backgroud signal is reported as 0.062.
For Phage-109 (MDWCPKNLWHVCFN), the “CD28 scFv signal in presence of CD28” value was 0.248, the “CD28 scFv signal” value was 2.530 and the Backgroud signal was 0.081.
Phage-110 (MDWCPRYLWDECFN) was tested, and the “CD28 scFv signal in presence of CD28” value was 0.283, the “CD28 scFv signal” value was 2.529 and the Backgroud signal was 0.069.
Phage-111 (MDWCPFYLWNECFY) was tested, and the “CD28 scFv signal in presence of CD28” value was 0.594, the “CD28 scFv signal” value was 2.528 and the Backgroud signal was 0.099.
In the case of Phage-112 (MHWCPRALWDVCYN), the “CD28 scFv signal in presence of CD28” value is reported as 0.240, the “CD28 scFv signal” value is reported as 2.528 and the Backgroud signal is reported as 0.077.
For Phage-113 (MDWCPRDLWNVCFF), the “CD28 scFv signal in presence of CD28” value was 0.137, the “CD28 scFv signal” value was 2.520 and the Backgroud signal was 0.164.
Phage-114 (MDWCPRYLWFECFA) was tested, and the Backgroud signal was 0.066.
Phage-115 (MDWCPRYLWHECFN) was tested, and the “CD28 scFv signal in presence of CD28” value was 0.421, the “CD28 scFv signal” value was 2.490 and the Backgroud signal was 0.105.
For Phage-116 (MDWCPRDLWYACFA), the Backgroud signal was 0.072.
For Phage-117 (MDWCPRYLWFECFS), the Backgroud signal was 0.079.
Phage-118 (MDWCPRHLWDECFF) gave a Backgroud signal of 0.074.
Phage-119 (MDWCPRYLWHMCYS) showed a Backgroud signal of 0.129.
With Phage-120 (MDWCPRDLWHACFS) the Backgroud signal was 0.074.
Phage-121 (MDWCPRDLWHVCFF) was tested, and the Backgroud signal was 0.068.
Substance Phage-122 (MDWCPRDLWDQCYA) has a Backgroud signal of 0.059.
Phage-123 (MDWCPIHLWNECFA) was tested, and the Backgroud signal was 0.104.
For Phage-124 (MDWCPRPLWDMCFF), the Backgroud signal was 0.063.
Phage-125 (MDWCPVSLWHVCFY) showed a Backgroud signal of 0.107.
For Phage-126 (MDWCPRFLWNECFN), the Backgroud signal was 0.072.
For Phage-127 (MDWCPRALWNECFA), the Backgroud signal was 0.080.
For Phage-128 (MDWCPRDLWIECFF), the Backgroud signal was 0.084.
Phage-129 (MDWCPSYLWTVCFA) was tested, and the Backgroud signal was 0.062.
For Phage-130 (MDWCPRYLWDACFF), the Backgroud signal was 0.066.
Phage-131 (MDWCPRSLWIYCFN) gave a Backgroud signal of 0.113.
Phage-132 (MDWCPTYLWFECFN) gave a Backgroud signal of 0.205.
Work on Phage-133 (MDWCPRFLWDECFF) yielded a Backgroud signal of 0.064.
Phage-134 (MDWCPSYLWHECFA) showed a Backgroud signal of 0.096.
Phage-135 (MDWCPKFLWHECFS) showed a Backgroud signal of 0.065.
In the case of Phage-136 (MHWCPIYLWDECFN), the Backgroud signal is reported as 0.071.
For Phage-137 (MDWCPRYLWHECFH), the Backgroud signal was 0.101.
Phage-138 (MDWCPTNLWHECFA) gave a Backgroud signal of 0.061.
Substance Phage-139 (MDWCPRDLWDVCFA) has a Backgroud signal of 0.096.
Substance Phage-140 (MDWCPMDLWDVCFN) has a Backgroud signal of 0.090.
Phage-141 (MDWCPRSLWNVCFF) showed a Backgroud signal of 0.106.
